Experimental data as given in ChEMBL document CHEMBL5143574, “Unraveling the anti-virulence potential and antifungal efficacy of 5-aminotetrazoles using the zebrafish model of disseminated candidiasis” (Eur J Med Chem, 2022).
Calls of active or inactive are those of the source. The calls are words filed in the database; no cut-off is given here.

Columns and labels:
Candida albicans [1] = assay: Anti-virulence activity against 120-140 RFP expressing cells of Candida albicans M137 expressing infected in hind brain of zebra fish embryo disseminated candidiasis model assessed as inhibition of fungal filamentation by measuring reduction of hyphae formation at 10 uM in presence of 1 ug/ml nystatin measured at 120 hpf; format: functional; design: scale not given: the % may be the effect or the level left
Candida albicans [2] = assay: Anti-virulence activity against Candida albicans SC5314 assessed as inhibition of fungal filamentation by measuring reduction of hyphae formation in RPMI medium upto 10 uM incubated for 3 to 5 days by stereomicroscopic analysis; format: functional, organism-based; conditions: time 3-5 day
Candida albicans [3] = assay: Anti-virulence activity against Candida albicans SC5314 assessed as inhibition of fungal filamentation by measuring reduction of hyphae formation in SLAD medium at 2.5 uM incubated for 3 to 5 days by stereomicroscopic analysis; format: functional; conditions: time 3-5 day
Candida albicans [4] = assay: Anti-virulence activity against Candida albicans SC5314 assessed as inhibition of fungal filamentation by measuring reduction of hyphae formation in YPS medium at 1.3 uM incubated for 3 to 5 days by stereomicroscopic analysis; format: functional, organism-based; conditions: time 3-5 day
Candida albicans [5] = assay: Anti-virulence activity against Candida albicans SC5314 assessed as inhibition of fungal filamentation by measuring reduction of hyphae formation in YPS plus uridine medium at 1.3 uM incubated for 3 to 5 days by stereomicroscopic analysis; format: functional, organism-based; conditions: time 3-5 day
Candida albicans [6] = assay: (§1) Anti-virulence activity against 53-75 RFP expressing cells of Candida albicans M137 in hind brain of zebra fish embryo disseminated candidiasis model assessed as reduction in mortality by measuring embryo survival rate treated at 1 hr post-infection and measured on day 4 post infection (reference value: 10%); format: functional; conditions: time 4 day
[7] = Toxicity in zebrafish embryos assessed as mortality treated at 6 hpf and measured at 120 hpf by stereomicroscopic analysis; design: species or system Danio rerio; conditions: in vivo
Candida albicans [8] = assay: Anti-virulence activity against Candida albicans SC5314 assessed as inhibition of fungal filamentation by measuring reduction in hyphae formation in YPS medium upto 10 uM incubated for 3 to 5 days by stereomicroscopic analysis; format: functional, organism-based; conditions: time 3-5 day
Candida albicans [9] = assay: Anti-virulence activity against 53-75 RFP expressing cells of Candida albicans M137 in hind brain of zebra fish embryo disseminated candidiasis model assessed as inhibition of fungal filamentation by measuring reduction of hyphae formation in the hind brain at 2.5 to 10 uM treated at 1 hr post-infection and measured on day 4 post infection by fluorescence microscopy; format: functional; design: scale not given: the % may be the effect or the level left; conditions: dose 2.5-10 µM, time 4 day
Candida albicans [10] = assay: Anti-virulence activity against 120-140 RFP expressing cells of Candida albicans M137 infected in hind brain of zebra fish embryo disseminated candidiasis model assessed as embryo survival rate at 10 uM in presence of 0.25 ug/ml nystatin measured at 120 hpf; format: functional
[11] = Toxicity against zebrafish embryo infected with 53-75 RFP expressing cells of Candida albicans M137 assessed as mortality at 2.5 to 10 uM treated at 1 hr post-infection and measured on day 4 post-infection; design: species or system Danio rerio; conditions: 96 h, dose 2.5-10 µM, time 4 day
Candida albicans [12] = assay: Anti-virulence activity against Candida albicans SC5314 assessed as inhibition of fungal filamentation by measuring reduction of hyphae formation in GlcNAc medium at 2.5 uM incubated for 3 to 5 days by stereomicroscopic analysis; format: functional; conditions: time 3-5 day
Candida albicans [13] = assay: Anti-virulence activity against 120-140 RFP expressing cells of Candida albicans M137 infected in hind brain of zebra fish embryo disseminated candidiasis model assessed as inhibition of fungal filamentation by measuring reduction of fungal hyphae formation at 10 uM in presence of 0.25 ug/ml nystatin measured at 120 hpf; format: functional
Candida albicans [14] = assay: Anti-virulence activity against Candida albicans SC5314 assessed as inhibition of fungal filamentation by measuring reduction in hyphae formation in SLAD medium upto 10 uM incubated for 3 to 5 days by stereomicroscopic analysis; format: functional, organism-based; conditions: time 3-5 day
Candida albicans [15] = assay: Anti-virulence activity against Candida albicans SC5314 assessed as inhibition of fungal filamentation by measuring reduction in hyphae formation in Lee medium upto 10 uM incubated for 3 to 5 days by stereomicroscopic analysis; format: functional, organism-based; conditions: time 3-5 day
Candida albicans [16] = assay: Anti-virulence activity against 120-140 RFP expressing cells of Candida albicans M137 infected in hind brain of zebra fish embryo disseminated candidiasis model assessed as embryo mortality at 10 uM measured at 120 hpf; format: functional
Candida albicans [17] = assay: Anti-virulence activity against 120-140 RFP expressing cells of Candida albicans M137 infected in hind brain of zebra fish embryo disseminated candidiasis model assessed as embryo survival rate upto 10 uM in presence of 0.13 to 1 ug/ml nystatin measured at 120 hpf; format: functional; conditions: up to 10 µM
[18] = Toxicity in zebrafish embryos assessed as toxic responses at 200 uM treated at 6 hpf and measured at 120 hpf by stereomicroscopic analysis; design: species or system Danio rerio; conditions: in vivo, 24 h
Candida albicans [19] = assay: Anti-virulence activity against Candida albicans SC5314 assessed as inhibition of fungal filamentation by measuring reduction of hyphae formation in Spider medium at 2.5 uM incubated for 3 to 5 days by stereomicroscopic analysis; format: functional; conditions: time 3-5 day
[20] = Reduction of nystatin resistance against Candida albicans SC5314 assessed as nystatin MIC at 5 to 10 uM measured after consecutive treatment with nystatin for 12 days; format: functional; conditions: SC5314, 288 h, dose 5-10 µM
Candida albicans [21] = assay: Anti-virulence activity against Candida albicans SC5314 assessed as inhibition of fungal filamentation by measuring reduction of hyphae formation in SLAD medium at 1.3 uM incubated for 3 to 5 days by stereomicroscopic analysis; format: functional, organism-based; conditions: time 3-5 day
Candida albicans [22] = assay: as §1, with “relative to control” for “(reference value: 10%)”; format: functional; conditions: time 4 day
Candida albicans [23] = assay: Anti-virulence activity against Candida albicans SC5314 assessed as inhibition of fungal filamentation by measuring reduction in hyphae formation in GlcNAc medium upto 10 uM incubated for 3 to 5 days by stereomicroscopic analysis; format: functional, organism-based; conditions: time 3-5 day
Candida albicans [24] = assay: Antifungal activity against Candida albicans SC5314 assessed as inhibition of fungal growth incubated for 24 hrs by broth microdilution assay; format: functional
Candida albicans [25] = assay: Anti-virulence activity against Candida albicans SC5314 assessed as inhibition of fungal filamentation by measuring reduction of hyphae formation in Lee medium at 1.3 uM incubated for 3 to 5 days by stereomicroscopic analysis; format: functional, organism-based; conditions: time 3-5 day
Candida albicans [26] = assay: Anti-virulence activity against Candida albicans SC5314 assessed as inhibition of fungal filamentation by measuring reduction of hyphae formation in Spider medium at 1.3 uM incubated for 3 to 5 days by stereomicroscopic analysis; format: functional, organism-based; conditions: time 3-5 day
Candida albicans [27] = assay: Anti-virulence activity against Candida albicans SC5314 assessed as inhibition of fungal filamentation by measuring reduction in hyphae formation in Spider medium upto 10 uM incubated for 3 to 5 days by stereomicroscopic analysis; format: functional, organism-based; conditions: time 3-5 day
Candida albicans [28] = assay: Anti-virulence activity against Candida albicans SC5314 assessed as inhibition of fungal filamentation by measuring reduction of hyphae formation in RPMI medium at 1.3 uM incubated for 3 to 5 days by stereomicroscopic analysis; format: functional, organism-based; conditions: time 3-5 day
Candida albicans [29] = assay: Indifferent antifungal activity against Candida albicans SC5314 assessed as fractional inhibitory concentration index incubated for 24 hrs in RPMI medium in presence of nystatin by checkerboard assay; format: functional
Candida albicans [30] = assay: Anti-virulence activity against Candida albicans SC5314 assessed as inhibition of fungal filamentation by measuring reduction of hyphae formation in GlcNAc medium at 1.3 uM incubated for 3 to 5 days by stereomicroscopic analysis; format: functional, organism-based; conditions: time 3-5 day
Candida albicans [31] = assay: as §1, with “activity” for “activity against”, “at 48 hrs” for “on day 4”, “40%)” for “10%)”; format: functional
Candida albicans [32] = assay: Anti-virulence activity against Candida albicans SC5314 assessed as inhibition of fungal filamentation by measuring reduction of hyphae formation in YPS medium at 2.5 uM incubated for 3 to 5 days by stereomicroscopic analysis; format: functional; conditions: time 3-5 day
Candida albicans [33] = assay: Anti-virulence activity against Candida albicans SC5314 assessed as inhibition of fungal filamentation by measuring reduction in hyphae formation in YPS plus uridine medium upto 10 uM incubated for 3 to 5 days by stereomicroscopic analysis; format: functional, organism-based; conditions: time 3-5 day

Q: Which results are given for Nc1nnnn1CCC12CC3CC(CC(C3)C1)C2?
A: Activity (Candida albicans [1]): 100%; Activity (Candida albicans [2]): Active; inhibition at 2.5 µM (Candida albicans [3]): 100%; Activity (Candida albicans [4]): Active; Activity (Candida albicans [5]): Active; Survival (Candida albicans [6]): 70%; LC50 [7]: > 200 µM; Activity (Candida albicans [8]): Active; Activity (Candida albicans [9]): 100%; survival at 10 µM (Candida albicans [10]): ≤ 30%; Activity [11]: Non-Toxic; inhibition at 2.5 µM (Candida albicans [12]): 100%; inhibition in vivo at 10 µM (Candida albicans [13]): ≤ 30%; Activity (Candida albicans [14]): Active; Activity (Candida albicans [15]): Active; mortality at 10 µM (Candida albicans [16]): 80%; Survival (Candida albicans [17]): <=80%; Activity [18]: Non-Toxic; inhibition at 2.5 µM (Candida albicans [19]): 100%; MIC [20]: 1 µg/mL; Activity (Candida albicans [21]): Active; fold change (FC) (Candida albicans [22]): 7; Activity (Candida albicans [23]): Active; MIC (Candida albicans [24]): > 200 µM; Activity (Candida albicans [25]): Active; Activity (Candida albicans [26]): Active; Activity (Candida albicans [27]): Active; Activity (Candida albicans [28]): Active; fractional inhibitory concentration index (FICI) (Candida albicans [29]): 1; Activity (Candida albicans [30]): Active; Survival (Candida albicans [31]): 50%; inhibition at 2.5 µM (Candida albicans [32]): 100%; Activity (Candida albicans [33]): Active
